Where a name gives a salt, the structure may show the parent alone.
Each molecule was assayed against MGAT2 Human (Homo sapiens (Human), UniProt Q3SYC2) (assay: MGAT2 Human IC50).
Assay type: biochemical

Sequence of MGAT2 Human (Q3SYC2 whole entry): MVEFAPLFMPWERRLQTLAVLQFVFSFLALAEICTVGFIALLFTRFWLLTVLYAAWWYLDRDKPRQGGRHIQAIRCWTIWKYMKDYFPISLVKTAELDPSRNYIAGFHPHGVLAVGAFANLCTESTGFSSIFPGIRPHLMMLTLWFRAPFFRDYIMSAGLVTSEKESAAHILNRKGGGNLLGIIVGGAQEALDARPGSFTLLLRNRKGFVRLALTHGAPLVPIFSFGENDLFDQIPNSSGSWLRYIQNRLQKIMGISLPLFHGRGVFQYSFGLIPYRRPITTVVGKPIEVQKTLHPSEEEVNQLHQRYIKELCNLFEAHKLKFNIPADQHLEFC

IC50 [nM] | Structure (SMILES)
17.2 | COCCOc1ccc([C@@H](C)N2CCc3ccc(S(=O)(=O)Nc4cc(C(C)(C)C)on4)cc3C2)cn1 [Example 31, 7-(N-(5-(tert-butyl)isoxazol-3-yl)sulfamoyl)-2-((R)-1-(6-(2-methoxyethoxy)pyridin-3-yl)ethyl)-1,2,3,4-tetrahydroisoquinolin-2-ium 2,2,2-trifluoroacetate]
19.8 | C[C@H](c1ccc(OCC(F)(F)F)nc1)N1CCc2ccc(S(=O)(=O)Nc3noc(C(C)(C)C)c3CO)cc2C1 [Example 32, 7-(N-(5-(tert-butyl)-4-(hydroxymethyl)isoxazol-3-yl)sulfamoyl)-2-((R)-1-(6-(2,2,2-trifluoroethoxy)pyridin-3-yl)ethyl)-1,2,3,4-tetrahydroisoquinolin-2-ium 2,2,2-trifluoroacetate]
3.7 | CCOC(=O)c1c(NS(=O)(=O)c2ccc3c(c2)CN([C@H](C)c2cc(F)cc(F)c2)CC3)noc1C(C)(C)C [Example 33, (R)-ethyl 5-(tert-butyl)-3-(2-(1-(3,5-difluorophenyl)ethyl)-1,2,3,4-tetrahydroisoquinoline-7-sulfonamido)isoxazole-4-carboxylate]
6.2 | CNC(=O)c1c(NS(=O)(=O)c2ccc3c(c2)CN([C@H](C)c2cc(F)cc(F)c2)CC3)noc1C(C)(C)C [Example 34, (R)-5-(tert-butyl)-3-(2-(1-(3,5-difluorophenyl)ethyl)-1,2,3,4-tetrahydroisoquinoline-7-sulfonamido)-N-methylisoxazole-4-carboxamide]
8.3 | CCOc1cnc([C@@H](C)N2CCc3ccc(S(=O)(=O)Nc4noc(C(C)(C)C)c4Cl)cc3C2)cn1 [Example 35, (R)—N-(5-(tert-Butyl)-4-chloroisoxazol-3-yl)-2-(1-(5-ethoxypyrazin-2-yl)ethyl)-1,2,3,4-tetrahydroisoquinoline-7-sulfonamide]
3.5 | CCOc1cnc([C@@H](C)N2CCc3ccc(S(=O)(=O)Nc4noc(C(C)(C)C)c4C)cc3C2)cn1 [Example 36, (R)—N-(5-(tert-butyl)-4-methylisoxazol-3-yl)-2-(1-(5-ethoxypyrazin-2-yl)ethyl)-1,2,3,4-tetrahydroisoquinoline-7-sulfonamide]
11.5 | CCOc1cnc([C@@H](C)N2CCc3ccc(S(=O)(=O)Nc4noc(-c5ccccc5)n4)cc3C2)cn1 [Example 37]
6 | CCCc1cnc(NS(=O)(=O)c2ccc3c(c2)CN([C@H](C)c2cc(F)cc(F)c2)CC3)cn1 [Example 38, (R)-2-(1-(3,5-difluorophenyl)ethyl)-N-(5-propylpyrazin-2-yl)-1,2,3,4-tetrahydroisoquinoline-7-sulfonamide]
11 | CCCc1c(NS(=O)(=O)c2ccc3c(c2)CN(Cc2ccc(CC)nc2)CC3)noc1C(C)(C)C [Example 39, N-(5-(tert-butyl)-4-propylisoxazol-3-yl)-2-((6-ethylpyridin-3-yl)methyl)-1,2,3,4-tetrahydroisoquinoline-7-sulfonamide]
15 | CCc1ccc(CN2CCc3ccc(S(=O)(=O)Nc4noc(C(C)(C)C)c4CC)cc3C2)cn1 [Example 40, N-(5-(tert-butyl)-4-ethylisoxazol-3-yl)-2-((6-ethylpyridin-3-yl)methyl)-1,2,3,4-tetrahydroisoquinoline-7-sulfonamide]
6.8 | CCCc1ccc(CN2CCc3ccc(S(=O)(=O)Nc4noc(C(C)(C)C)c4Br)cc3C2)cn1 [Example 41, N-(4-bromo-5-(tert-butyl)isoxazol-3-yl)-2-((6-propylpyridin-3-yl)methyl)-1,2,3,4-tetrahydroisoquinoline-7-sulfonamide]
8.2 | CCc1ccc([C@@H](C)N2CCc3ccc(S(=O)(=O)Nc4noc(C(C)(C)C)c4C)cc3C2)cn1 [Example 42, (R)—N-(5-(tert-butyl)-4-methylisoxazol-3-yl)-2-(1-(6-ethylpyridin-3-yl)ethyl)-1,2,3,4-tetrahydroisoquinoline-7-sulfonamide]
1.6 | CCCc1ccc([C@@H](C)N2CCc3ccc(S(=O)(=O)Nc4noc(C(C)(C)C)c4Br)cc3C2)cn1 [Example 43, (R)—N-(4-bromo-5-(tert-butyl)isoxazol-3-yl)-2-(1-(6-propylpyridin-3-yl)ethyl)-1,2,3,4-tetrahydroisoquinoline-7-sulfonamide]
118 | CC(C)(C)c1onc(NS(=O)(=O)c2cnc3c(c2)CN(Cc2cc(F)cc(F)c2)CC3)c1Br [Example 44, N-(4-bromo-5-(tert-butyl)isoxazol-3-yl)-6-(3,5-difluorobenzyl)-5,6,7,8-tetrahydro-1,6-naphthyridine-3-sulfonamide Trifluoroacetate]
7.3 | CCCc1cnc(NS(=O)(=O)c2ccc3c(c2)CN([C@H](C)c2ccc(OCC(F)(F)F)nc2)CC3)cn1 [Example 45, 7-(N-(5-propylpyrazin-2-yl)sulfamoyl)-2-((R)-1-(6-(2,2,2-trifluoroethoxy)pyridin-3-yl)ethyl)-1,2,3,4-tetrahydroisoquinolin-2-ium 2,2,2-trifluoroacetate]
12.7 | CCc1cnc(NS(=O)(=O)c2ccc3c(c2)CN([C@H](C)c2ccc(OCC(F)F)nc2)CC3)cn1 [Example 46, 2-((R)-1-(6-(2,2-difluoroethoxy)pyridin-3-yl)ethyl)-7-(N-(5-ethylpyrazin-2-yl)sulfamoyl)-1,2,3,4-tetrahydroisoquinolin-2-ium 2,2,2-trifluoroacetate]
13.9 | CC(C)Nc1cnc(NS(=O)(=O)c2ccc3c(c2)CN([C@H](C)c2ccc(OCC(F)(F)F)nc2)CC3)cn1 [Example 47, 7-(N-(5-(isopropylamino)pyrazin-2-yl)sulfamoyl)-2-((R)-1-(6-(2,2,2-trifluoroethoxy)pyridin-3-yl)ethyl)-1,2,3,4-tetrahydroisoquinolin-2-ium 2,2,2-trifluoroacetate]
21.3 | COCCOc1ccc([C@@H](C)N2CCc3ccc(S(=O)(=O)Nc4cnc(C5CC5)cn4)cc3C2)cn1 [Example 48, 7-(N-(5-cyclopropylpyrazin-2-yl)sulfamoyl)-2-((R)-1-(6-(2-methoxyethoxy)pyridin-3-yl)ethyl)-1,2,3,4-tetrahydroisoquinolin-2-ium 2,2,2-trifluoroacetate]
8.7 | COc1ccc(NS(=O)(=O)c2ccc3c(c2)CN([C@H](C)c2ccc(OCC(F)(F)F)nc2)CC3)nn1 [Example 49, (R)—N-(6-methoxypyridazin-3-yl)-2-(1-(6-(2,2,2-trifluoroethoxy)pyridin-3-yl)ethyl)-1,2,3,4-tetrahydroisoquinoline-7-sulfonamide]
3.8 | C[C@H](c1ccc(OCC(F)(F)F)nc1)N1CCc2ccc(S(=O)(=O)Nc3ccc(C(C)(C)C)nn3)cc2C1 [Example 50, 7-(N-(6-(tert-butyl)pyridazin-3-yl)sulfamoyl)-2-((R)-1-(6-(2,2,2-trifluoroethoxy)pyridin-3-yl)ethyl)-1,2,3,4-tetrahydroisoquinolin-2-ium 2,2,2-trifluoroacetate]
14 | CCOC(=O)c1noc(NS(=O)(=O)c2ccc3c(c2)CN([C@H](C)c2cc(F)cc(F)c2)CC3)n1 [Example 51, (R)-ethyl 5-(2-(1-(3,5-difluorophenyl)ethyl)-1,2,3,4-tetrahydroisoquinoline-7-sulfonamido)-1,2,4-oxadiazole-3-carboxylate]
31 | C[C@H](c1cc(F)cc(F)c1)N1CCc2ccc(S(=O)(=O)Nc3nc(C(N)=O)no3)cc2C1 [Example 52, (R)-5-(2-(1-(3,5-difluorophenyl)ethyl)-1,2,3,4-tetrahydroisoquinoline-7-sulfonamido)-1,2,4-oxadiazole-3-carboxamide]
7.1 | CCNC(=O)c1noc(NS(=O)(=O)c2ccc3c(c2)CN([C@H](C)c2cc(F)cc(F)c2)CC3)n1 [Example 53]
16 | C[C@H](c1cc(F)cc(F)c1)N1CCc2ccc(S(=O)(=O)Nc3nc(C(=O)NCC(F)(F)F)no3)cc2C1 [Example 54]
3.7 | C[C@H](c1cc(F)cc(F)c1)N1CCc2ccc(S(=O)(=O)Nc3nc(C(=O)N4CCC4)no3)cc2C1 [Example 55]
5.7 | C[C@H](c1cc(F)cc(F)c1)N1CCc2ccc(S(=O)(=O)Nc3nc(C(=O)N(C)C)no3)cc2C1 [Example 56]

Source: US10065945B2, “Isoquinoline derivatives as MGAT2 inhibitors” (Merck Sharp & Dohme Corp., priority 2014, dated 2018)
